Data on ten molecules can be found in ChEMBL document CHEMBL3751688, “Synthesis, in vitro antimycobacterial evaluation and docking studies of some new 5,6,7,8-tetrahydropyrido[4',3':4,5]thieno[2,3-d]pyrimidin-4(3H)-one schiff bases” (Bioorg Med Chem Lett, 2016).

≈ marks a conversion by molar mass, not a printed value.

Assay [1] concerns Mycobacterium tuberculosis. Briefly: Antimycobacterial activity against isoniazid-resistant Mycobacterium tuberculosis after 21 days by broth microdilution method. The class given is functional. To be noted: 504 h.
Assay [2] deals with Mycobacterium tuberculosis. Briefly: Antimycobacterial activity against isoniazid-resistant Mycobacterium tuberculosis after 14 days by broth microdilution method. The class given is functional. To be noted: 336 h.

As for `Cc1nc2sc3c(c2c(=O)n1/N=C/c1ccc(C#N)cc1)CCN(Cc1ccccc1)C3`, the MIC in assay [1] and in assay [2] was 20 µM (≈ 8.79 µg/mL) each time.

For the molecule `N#Cc1ccc(/C=N/n2cnc3sc4c(c3c2=O)CCN(Cc2ccccc2)C4)cc1`, the MIC in assay [1] and in assay [2] was 9 µM (≈ 3.83 µg/mL) throughout.

`O=c1c2c3c(sc2ncn1/N=C/c1ccc(Cl)cc1)CN(Cc1ccccc1)CC3`: the MIC in assay [1] and in assay [2] was 20 µM (≈ 8.7 µg/mL) throughout.

Take `Cc1nc2sc3c(c2c(=O)n1/N=C/c1ccc(Cl)cc1)CCN(Cc1ccccc1)C3`: the MIC in assay [1] and in assay [2] was 8 µM (≈ 3.59 µg/mL) in each case.

Consider `COc1ccc(/C=N/n2cnc3sc4c(c3c2=O)CCN(Cc2ccccc2)C4)cc1`, for which the MIC in assay [1] and in assay [2] was 20 µM (≈ 8.61 µg/mL) each time.

In the case of `O=c1c2c3c(sc2ncn1/N=C/c1cccs1)CN(Cc1ccccc1)CC3`, the minimum inhibitory concentration (MIC) in assay [1] and in assay [2] was 22 µM (≈ 8.94 µg/mL) throughout.

Regarding `CC[C@@H](CO)NCCN[C@@H](CC)CO` [ETHAMBUTOL], the MIC in assay [1] and in assay [2] was 4 µM (≈ 0.817 µg/mL) throughout.

For the molecule `NNC(=O)c1ccncc1` [ISONIAZID], the MIC in assay [1] and in assay [2] was above 8 µM in each case.

On to `CO[C@H]1/C=C/O[C@@]2(C)Oc3c(C)c(O)c4c(O)c(c(/C=N/N5CCN(C)CC5)c(O)c4c3C2=O)NC(=O)/C(C)=C\C=C\[C@H](C)[C@H](O)[C@@H](C)[C@@H](O)[C@@H](C)[C@H](OC(C)=O)[C@@H]1C` [RIFAMPIN], for which the MIC in assay [1] and in assay [2] was 2 µM (≈ 1.65 µg/mL) each time.

For `CN[C@@H]1[C@H](O[C@H]2[C@H](O[C@H]3[C@H](O)[C@@H](O)[C@H](N=C(N)N)[C@@H](O)[C@@H]3N=C(N)N)O[C@@H](C)[C@]2(O)C=O)O[C@@H](CO)[C@H](O)[C@H]1O` [STREPTOMYCIN], the MIC in assay [1] and in assay [2] was 2 µM (≈ 1.16 µg/mL) in each case.

As usually defined, the MIC is the lowest concentration found to suppress growth. Lower therefore signals a more susceptible organism.
